1 substance from US6235891A, “Glucocorticoid receptor agonist and decreased PP5” (South Alabama Medical Science Foundation, priority 1999, dated 2001) can be followed below.

Holding throughout (type): cell-based, human
One data set concerns PP5 mRNA. As to the kind of experiment: Northern blot analysis of PP5 mRNA expression in A549 cells. As to conditions: doses of 25 to 500 nM. From the text:
The oligonucleotides shown in Table 1 were designed using the Genbank sequences HSSERTHRP (Genbank accession number X92121), HSRNAPPP5 (Genbank accession number X89416) and PPP5C (Genbank accession number U25174), synthesized and tested for inhibition of PP5 mRNA expression in A549 cells using a Northern blot assay. All oligonucleotides shown in Table 1 are chimeric oligonucleotides with central 2'-deoxy "gaps," which have phosphorothioate backbones, flanked on both sides by 2'-methoxyethoxy (2'-MOE) "wings" (shown in bold), which have phosphodiester backbones. All cytosines in the 2'-MOE wings are 5-methylcytosines.
In the initial screen, A549 cells were treated with oligonucleotides at a concentration of 300 nM oligonucleotide for four hours in the presence of […] lipofectin. Results were normalized and expressed as a percent of control. The effect of each oligonucleotide on levels of PP5 mRNA, expressed as approximate percent inhibition compared to control, is shown in Table 1. In this initial screen, oligonucleotides giving a reduction of PP5 mRNA of approximately 50% or greater were considered active. […] These sequences (SEQ ID NO: 1, 2, 3, 4, 6, 7 and 12, respectively, SEQ ID Nos shown in bold in Table 1) are therefore preferred.
These oligonucleotides were tested for their ability to reduce PP5 mRNA levels in A549 cells, using oligonucleotide doses of 25 to 500 nM.
The human lung tumor cell line A549 was obtained from the American Type Culture Collection (Rockville Md.) and were grown in DMEM (Gibco BRL, Gaithersburg Md.), supplemented with 10% fetal calf. Cells were seeded on 60 mm plates. When they reached 70% confluency, they were washed with DMEM and 1 ml of DMEM containing 15 μg/ml DOTMA/DOPE (Lipofectin®, GIBCO-BRL) and oligonucleotide at desired concentration was added. Duplicate dishes were used for each treatment condition. After 4 hours of treatment at 37°, cells were washed and cultured in fresh DMEM containing 10% fetal bovine serum for an additional 17 hours. Cells were then harvested and total RNA was extracted with TRIzol Reagent (GIBCO-BRL) according to manufacturer's protocol. Total RNA (20 μg) was fractionated on a 1% agarose gel containing formaldehyde, and transferred to a DURLON-UV (Stratagene) nylon membrane. Following UV crosslinking, the filters were hybridized with the appropriate protein phosphatase probe. The ^32 P-labeled human PP cDNA probes are generated with DECAPrime® DNA Labeling Kit (Ambion) according to the manufacturer's protocol. Hybridization was performed in a hybridization solution containing 50% formamide at 42° for 16 hours. This was followed by two low stringency washes (2×SSC) at room temperature and two high stringency washes (0.1×SSC/0.5% SDS) at 55° C. Hybridization signals were visualized by autoradiography, and filters were then stripped and reprobed with a ^32 P-labeled glyceraldehyde-3-phosphate dehydrogenase (GAPDH) probe to confirm equal loading. The densities of hybridization signals were measured with the NIH Image program (ImagePC).
The cells were harvested, and total RNA was extracted with TRIzol® Reagent according to the methods of the manufacturer. Total RNA (20 μg) was fractionated on 1% agarose gels containing formaldehyde and transferred to DURLON-UV nylon membranes (Stratagene). Following UV cross-linking, the filters were hybridized with a [α^32 P]probe for human PP5. The human PP5 cDNA probe was generated from the full length coding region of PP5 and [α^32 P]-dATP was labeled with DECAprime® DNA Labeling Kit according to the manufacturer's protocol. Hybridization was performed in the presence of 50% formamide, 0.1 M Pipes, 0.8 M NaCl, 5×Denhardt's solution, 100 μg/ml denatured herring sperm DNA, 1×10^6 cpm/ml [α-^32 P]-labeled probe and 10% dextran sulfate at 42° C. for 16 hours. Following hybridization, the membrane was subjected to two low stringency washes (2×SSC) at room temperature and then two high stringency washes (0.1×SSC/0.5% SDS) at 55° C. […]

Data set [1] concerns A549 cells. As to the kind of experiment: A549 cell proliferation (viable cell counts). As to conditions: 300 nM, all 5 days. As for the experimental part: A549 cells were treated with ISIS 15534 or its scrambled control, ISIS 15521 at a concentration of 300 nM. Each day for the next 5 days, viable cells were counted.
A549 cells were seeded in 12-well tissue culture plates at about 50% confluence in DMEM containing 10% fetal bovine serum. The next day, cells were treated with the PP5-specific antisense oligonucleotide, ISIS 15534, or its scrambled control, ISIS 15521, at a final concentration of 300 nM as described in Example 7. On each of the following 5 days, cultures from three wells of each treatment gruop were trypsinized, collected and counted. Cell viability was determined by trypan blue staining, and the results given are the mean of three independent experiments.
A549 cells were seeded in 12-well tissue culture plates at a density of 5.0×10^4 cell/dish. On the next day, the cells were treated with PP5 specific antisense oligonucleotides (ISIS 15534) or the scrambled mismatch control (ISIS 15521) at a final concentration of 300 nM as described above. On each of the next five days, the cell cultures were treated briefly with trypsin to detach the cells from the dish (three wells from each test group). The number of cells was then determined by counting using a hemacytometer. Cell viability was determined with trypan blue staining. The percentage of viable cells was calculated by dividing the number of cells excluding trypan blue by the total number of cells, and the results are reported as the mean +/- SD of data collected from three independent experiments.
The antiproliferative effect of dexamethasone correlates with the presence of wild type p53 and the expression of p21^Waf1/Cip1 mRNA. Referring to FIGS. 1A-1C, the effect of dexamethasone on cell proliferation in p53-defective T-24 human bladder carcinoma, p53-null TR9 human fibroblasts (Webster et al. 1993; Maiyar et al. 1996), and p53 wild-type A549 human lung carcinoma cells was determined by treating cells in log-phase growth with a single dose of 100 nM dexamethasone and counting the number of cells in treated (.cndot.) and untreated (.box-solid.) cultures for six consecutive days following treatment. Each point represents the mean of triplicate dishes with error bars representing SE. Under similar conditions, treatment with ISIS 15534, a potent inhibitor of PP5 gene expression, inhibited growth in A459 but not T-24 or TR9 cells (Zuo et al. 1998). Referring to FIG. 1D, a comparison of p21^Waf1/Cip1 (p21) and serum glucocorticoid inducible protein kinase (sgk) mRNA levels in p53 competent (Lanes 3, 4) and p53 deficient (Lanes 1, 2, 5, 6) cell cultures after dexamethasone treatment is shown. Cell cultures in logphase growth were treated with 100 nM dexamethasone (+) or vehicle alone as a control (-). After 24 hours total mRNA was prepared and analyzed for p21 and sgk mRNA levels by Northern analysis.

The test system of data set [2] is A549 cells. As to the kind of experiment: [3H]-thymidine incorporation (DNA synthesis) in A549 cells. As to conditions: 300 nM, all 5 days. The procedure: Cells were pulse-labeled with [^3 H]-thymidine for 5 hours at intervals over the next five days. Cells were lysed and [^3 H]-thymidine incorporation (indicative of DNA synthesis) was determined by liquid scintillation counting.
At timed intervals during the next 5 days, cells were pulse-labeled with [^3 H]-thymidine (0.5 μCi/ml) for 5 hours. […] The results given are the mean of three independent experiments.
On the technique in general: Dividing cells build labelled thymidine or BrdU into new DNA.

Some results are limits rather than exact numbers.

Consider “ISIS 15521: mismatch (scrambled) control oligonucleotide, phosphodiester wings, phosphorothioate gap; GTGCGATCGTTGCGGTTAGC, SEQ ID NO: 14 (sugars by position and backbone not given here; phosphodiester wings, phosphorothioate gap) [reference compound]”, for which the “Inhibition of PP5 mRNA levels at any of the doses tested” value in the data set on PP5 mRNA was at most 20%. For the same substance, in the data set on A549 cells [1], the “Proliferation relative to untreated control” value was “approximately equivalent to untreated control”. Also, in the data set with A549 cells [2], the “[3H]-thymidine incorporation relative to untreated control” value is given as “approximately equivalent to untreated control”.
